Here are results for two compounds from patent EP0059817A1, “Serpentine, alstonine and sempervirine drugs for the specific inhibition of tumurous and cancerous cells” (priority 1981, dated 1982).

For data set [1], the system named is Cellules "Vero" (cellules de lignée). Nature of the data set: cell culture cytotoxicity, normal cells. The data set is classed as cell-based. As to conditions: 150 µg dès l'ensemencement (per ml of culture). On the procedure: (§1) L'effet cytotoxique spécifique, vis-à-vis des cellules tumorales utilisées, ne s'est jamais démenti au cours des très nombreuses expériences effectuées. Par contre, pour effectuer les cellules saines il a fallu des quantités d'alcaloides au moins dix fois plus grandes (plus de 2 mg/ml). (Les cultures de cellules in-vitro sans mycoplàsmes ont été effectuées dans les conditions classiques et en l'absence d'antibiotique qui pourraient fausser les résultats).
(§2) Les cellules cancéreuses et saines utilisées ne contenaient pas de mycoplasmes et le milieu de culture ne contenait pas d'antibiotique, ces derniers pouvant sensibiliser les cellules et par conséquent fausser les résultats.

The subject of another data set is lymphome YC 8. The data set can be described thus: lymphoma YC 8 of the mouse, flavopéreirine. As to conditions: for survie (surviving mice/total): i.p. 2 x 150 µg per day, 10 days from 24 h after inoculation. The data set is classed as in vivo, souris BALB c. The source says: En ce qui concerne l'activité de la flavopéreirine vis-à-vis du lumphome YC 8 de la souris, 30 souris BALB c de 19-20 g ont été inoculées par voie intrapéritonéale par 10^4 cellules ascitiques du lymphome YC 8 fraîchement prélevées et en pleine division chez la souris.
Dix souris ont été gardées comme témoins et 20 souris ont été traitées 24 heures après inoculation.
La flavopéreirine est dissoute en milieu physiologique tamponné (pH 7,65) et deux injections par voie intrapéritonéale et par jour sont administrées, (2 x 150 µg de flavopéreirine) et ceci pendant 10 jours consécutifs.

Data set [2] has as its system Cellules primaires de reins de singe. The data set can be described thus: cell culture cytotoxicity, normal cells. Type of data set: cell-based. As for the experimental part:
Des cultures de cellules saines (cellules primaires de reins de singe, cellules de lignée "Vero" et "SIRC") et des cultures de cellules cancéreuses (cellules K.B., cellules Hela, cellules Hep II et cellules L)ont reçu une dose de 200 Mg, soit de serpentine, soit d'alstonine, soit de sempervirine, par ml de culture.
as §1, §2

Another data set has as its system virus de la vaccine. On the set-up: species or system lapin. As to conditions: in vivo.
In the next data set the test system is cellules saines. Nature of the data set: cell culture cytotoxicity, healthy cells as a group. Type of data set: cell-based. As for the experimental part: as §1, §2
The subject of another data set is Cellules L. Nature of the data set: cell culture cytotoxicity, cancer cells. As to conditions: 150 µg dès l'ensemencement (per ml of culture). Type of data set: cell-based. As for the experimental part:
as §1, §2

A further data set deals with Cellules K.B. The data set can be described thus: cell culture cytotoxicity, cancer cells. The data set is classed as cell-based. As for the experimental part: as §1, §2
For another data set, the system named is Cellules Hela. The data set can be described thus: cell culture cytotoxicity, cancer cells. The data set is classed as cell-based. As to conditions: 150 µg dès l'ensemencement (per ml of culture); culture de 3 jours. On the procedure: as §1, §2
The next data set concerns cellules cancéreuses. The data set can be described thus: cell culture cytotoxicity, cancer cells as a group. Type of data set: cell-based. As for the experimental part:
as §1, §2

The test system of data set [3] is ascite d'Ehrlich. The data set can be described thus: Ehrlich ascites tumour in the mouse, flavopéreirine. Type of data set: in vivo, souris SWISS. As to conditions: for survie (surviving mice/total): i.p. 2 x 150 µg per day, 10 days from 24 h after inoculation. As for the experimental part:
En ce qui concerne l'activité de la flavopéreirine, vis-à-vis des tumeurs ascites d'Ehrlich de la souris, 30 souris SWISS de 20- 22 g ont été inoculées par voie intrapérito néale par 5 x 10^3 cellules ascite d'Ehrlich fraîchement prélevées.
Dix souris ont été gardées témoins et 20 souris ont été traitées 24 heures après l'inoculation par la flavopéreirine à raison de deux fois par jours (2 x 150 µg) par voie intrapéritonéale et pendant 10 jours consécutifs.
Les résultats du tableau VIII ci-après illustrent la survie des animaux pendant trois mois (une survie de plusieurs jours n'est pas prise en considération).

The subject of the next data set is virus de la grippe. The data set is classed as in vivo, souris SWISS. As to conditions: doses comparables.
Another data set concerns tumeur MS 301. Nature of the data set: transplantable mammary cancer of the mouse. Type of data set: in vivo, souris de souche Rh0 III. As to conditions: 400 ^gg at the tumour implantation site, twice a day for 15 days from day 3; n=10; p : 0,01. The source says:
Action sur le cancer mammaire greffable de la souris • - Vingt souris de 18 à 20g, de souche Rh0 III ont été inoculées, par voie sous-cutanée, par 0,8 " d'un extrait de tumeur MS 301, broyé. Dix souris ont été gardées comme témoins; dix autres vaient, le troisième jour après l'inoculation, 400 ^gg d'alstonine au niveau de l'implantation tumorale, deux fois par jour, pendant quinze- jours. Au seizième jour, les souris étaient anesthésiées et sacrifiées, les tumeurs excisées et pesées. • - La même expérience fut effectuée avec la serpentine au lieu d'alstonine.

The test system of another data set is cancers du sein. The data set can be described thus: clinical trials in humans, breast cancer cases. The data set is classed as in vivo, humains. An excerpt: Toutefois, on a pu constater au cours des essais cliniques sur l'humain que les β-carbolines quaternaires avaient une demi-vie trop courte pour être administrée sous forme galénique mais que, de façon surprenante, on obtenait d'excellents résultats dans le traitement des cancers chez les humains en utilisant une nouvelle forme galénique constituée de microgranules à libération prolongée des p-carbolines quaternaires. Ces microgranules comprennent une âme neutre constituée d'un grain excipient inerte par exemple un ou plusieurs constituants tels que le sacchorose, l'amidon, le talc, la silice désséchante, le lactose et l'acide stéarique, le grain neutre étant muni d'une première couche comprenant la β-carboline quaternaire puis d'une seconde couche extérieure constituée par une enveloppe microporeuse comprenant au moins un polymère naturel et/ou synthétique appartenant à la classe constituée par la gomme laque, la qomme arabique, la gélatine, l'éthylcellulose, l'acétophtalate d2 cellulose, le triacétate de cellulose, le polyoxyéthylèneglycol, les méthacrylates, le copolymère styrène-acrylonitrile et la polyvinylpyrrolidone.
A titre d'exemple, on a reproduit ci-après trois cas significatifs relatifs à.des cancers du sein et pour lesquels on a utilisée la serpentine préparéeselon la nouvelle forme galénique objet de l'invention décrite ci-dessus.

Data set [4] concerns Ascite d'Ehrlich. The data set can be described thus: Ehrlich ascites tumour in the mouse, serpentine, alstonine, cyclophosphamide. Type of data set: in vivo, souris blanches Swiss. As to conditions: for survie (surviving mice/total): I.P., serpentine 400 µg par jour, cyclophosphamide 2 ma par jour. An excerpt:
Activité vis-à-vis des tumeurs "Ascite d'Ehrlich" chez la souris - 5 x 10^3 cellules Ascite d'Ehrlich sont inoculées à des souris blanches Swiss de 20-24 g, par voie intrapéritonéale.
Divers traitements furent appliqués dès le quatrième ou le cinquième jour et pendant dix à quinze jours. […] Un net ralentissement du développement des tumeurs est observé, mais les tumeurs repartent après arrêt du traitement dans le cas du cyclophosphamide seul, le redémarrage peut être plus tardif qu'avec la serpentine ou l'alstonine. Par contre, l'association de serpentine (400 µg par jour) et de cyclophosphamide (2 ma par jour) par voie I.P. permet d'obtenir une survie définitive (survie définitive : survie normale pendant trois mois sans perte de poids) et le pourcentage des survivants varie de 80 à 100% (Tableau IV ci-après). Les souris ainsi guéries augmentent normalement de poids et après quatre à six mois celui-ci est de 24-26 g. Leur aspect est absolument normal et rien ne les distingue de souris saines. (Dans les expériences, seule la survie sans récidive est prise en considération).
La figurer, où sont portés en abscisses le nombre de jours de traitement et en ordonnées le poids (en gramme) des souris, montre l'évolution de la tumeur d'Ehrlich chez les souris traitées, soit par la serpentine seule (courbe 2), soit par le cyclophosphamide seul (courbe 3), soit par la serpentine + cyclophosphamide (courbe 4) par voie intra- péritonéale et aux doses indiquées ci-dessus. […] Aucun de ces deux traitements ne permet d'obtenir une survie.définitive. Par contre, le mélange de serpentine et de cyclophosphamide permet d'obtenir une survie définitive.

The test system of data set [5] is Ascite d'Ehrlich. The description is as above. The data set is classed as in vivo, souris blanches Swiss. As to conditions: voie sous-cutanée, doses as above.
The mark [6] stands for this setting: 150 µg dès l'ensemencement (per ml of culture).
The mark [7] stands for this setting: 200 µg/ml, en culture de 7 jours dès l'ensemencement.
The mark [8] stands for this setting: 200 µg/ml, en culture de 3 jours dès l'ensemencement.

`CCc1ccc2c3[nH]c4ccccc4c3cc[n+]2c1` [flavopéreirine]: the destruction des cellules result is reported as “- Pas de destruc-tion pendant 7 jours” in data set [1]; “- Pas de destruc-tion pendant 7 jours” in data set [2] (setting [6]); “Pas de destruction pendant 8 jours” in [2] (setting [7]); “- Destruction to-tale en 24-48 heures” with Cellules L; “- Destruction to-tale en 24-48 heures” in the data set with Cellules K.B. (setting [6]); “Destruction totale en 24-48 heures” in the data set on Cellules K.B. (setting [8]). The destruction des cellules result in the data set with Cellules Hela is listed as “- Destruction to-tale en 24-48 heures”. Also, the “survie (surviving mice/total)” value in the data set with lymphome YC 8 (day 0) is recorded as 20/20; with lymphome YC 8 (day 21), 20/20; in the data set with lymphome YC 8 (day 60), 17/20; in the data set on lymphome YC 8 (day 90), 17/20; in the data set on ascite d'Ehrlich [3] (day 0), 20/20; with ascite d'Ehrlich [3] (day 24), 17/20. The “survie (surviving mice/total)” value in the data set with ascite d'Ehrlich [3] (day 60) and with ascite d'Ehrlich [3] (day 90) was 11/20 throughout. Also, the “state of the surviving mice” value in the data set with lymphome YC 8 (voie I.P., more than three months of observation) is on record as “développement étant tout à fait normal”. Besides, the “survie de trois mois, share of treated mice” value in the data set with lymphome YC 8 (voie sous-cutanée, 2 x 150 µg per day, 10 days) was 70-80%. The appearance of papules entry in the data set on virus de la vaccine is on record as “empêche l'apparition et le développement des papules virales”. Besides, the “destruction des cellules saines” value in the data set with cellules saines (150 µg par ml de culture) was “ne sont pas détruites pendant les 7 jours d'observation”. Also, in the data set on cellules cancéreuses (150 µg par ml de culture), the “destruction des cellules cancéreuses” value is given as “détruites en 24-48 heures”. For the same compound, the “guérison (in words)” value in the data set on ascite d'Ehrlich [3] (flavopéreirine alone, three months of observation, same results in souris BALB c) is “permet la guérison d'un important pourcentage de souris”. The “activity against influenza compared with sempervirine” value in the data set on virus de la grippe is “résultats tout à fait comparables”.
In the case of `COC(=O)C1=CO[C@@H](C)[C@H]2Cn3ccc4c5ccccc5nc-4c3C[C@H]12` [serpentine], the “POIDS MOYEN (en grammes) DES TUMEURS, AU 16è JOUR” value with tumeur MS 301 was 1,6 (compris entre 0,9 et 2,5) grammes. In addition, the destruction des cellules result in data set [2] (setting [7]) is reported as “Pas de destruction pendant 8 jours”; with Cellules K.B. (setting [8]) it was “Destruction totale en 24-48 heures”. The “clinical outcome, case 1 (Madame M.)” value in the data set with cancers du sein (after one month, 100mg en microgranules par jour per os in two doses, after irradiation) is “régression des deux tumeurs”; in the data set on cancers du sein (during 6 months of treatment, 100mg en microgranules par jour per os), “la tumeur du sein diminue et disparait alors que le squirrhe lui-même régresse considérablement”. Moreover, the “clinical outcome, case 3 (Madame L.)” value with cancers du sein (bone metastases, sustained-release microgranules, 6 months of treatment) is listed as “La fracture du col du fémur se consolide ainsi que disparait la métastase calcanéenne”. Besides, the “clinical outcome, case 2 (Madame P.)” value with cancers du sein (three months, microgranules 100 mg par jour per os in two doses, after radiotherapy and local excision) is on record as “la douleur qui persistait après l'intervention disparait progressivement et le sein prend un aspect normal et indolore”. Besides, the “destruction des cellules saines” value in the data set with cellules saines (200 Mg par ml de culture, au bout de huit jours d'observation, reins de singe, Vero, SIRC) was “aucune destruction des cellules saines”. Moreover, the “survie (surviving mice/total)” value in the data set on Ascite d'Ehrlich [4] (day 0) is 10/10; with Ascite d'Ehrlich [4] (day 25) it was 10/10; in the data set with Ascite d'Ehrlich [4] (day 35), 0/10. The “definitive arrest of the Ehrlich ascites tumour (in words)” value in the data set on Ascite d'Ehrlich [4] (each substance alone, treatment from day 4 or 5 for 10 to 15 days) is “ne peuvent définitivement arrêter la tumeur ascitique d'Ehrlich”. In addition, the “évolution de la tumeur d'Ehrlich (figure, weight of mice against days of treatment)” value in the data set on Ascite d'Ehrlich [4] (voie intrapéritonéale, doses as above, curves 2, 3, 4) is “net ralentissement du poids des tumeurs”. Moreover, the “destruction des cellules cancéreuses” value in the data set on cellules cancéreuses (200 Mg par ml de culture, en 24 à 48 heures, K.B., Hela, Hep II, L) is reported as “toutes les cellules cancéreuses étaient détruites”. Besides, the “survie and tumour evolution (in words)” value in the data set with Ascite d'Ehrlich [5] is given as “sans effet sur la survie définitive des souris”. The “activity against influenza compared with sempervirine” value with virus de la grippe was “résultats tout à fait comparables”.
